Measured values published in patent publication US6737383B1, “Herbicidal oxadiazolidines” (priority 1999, dated 2004).

Assays:
Green foxtail [1] = assay: Test D green foxtail; format: in vivo; conditions: Postemergence, 0 to 100 scale, 0 no injury, 100 complete control
pigweed = assay: Test B pre/postemergence pigweed; format: in vivo, Amaranthus retroflexus; conditions: for Redroot pigweed plant response rating: scale of 0 to 10 where 0 is no effect and 10 is complete control
Summary of the method: (§1)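 Test chemicals in a non-phytotoxic solvent mixture with surfactant were sprayed preemergence onto planted seeds and postemergence onto plants 2 to 18 cm tall (1- to 4-leaf stage). After twelve to sixteen days in a greenhouse, injury was visually rated against untreated controls from 0 (no effect) to 10 (complete control).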

common groundsel = assay: Test D common groundsel; format: in vivo, Senecio vulgaris; conditions: Postemergence, 0 to 100 scale
morningglory = assay: Test B pre/postemergence morningglory; format: in vivo, Ipomoea hederacea; conditions: for Morningglory plant response rating: scale of 0 to 10 where 0 is no effect and 10 is complete control
Summary of the method: as §1

Green foxtail [2] = assay: Test D green foxtail; format: in vivo; conditions: Rate 250 g/ha; Postemergence; 0 to 100 scale
Spanishneedles = assay: Test D Spanishneedles; format: in vivo, Bidens bipinnata; conditions: Postemergence, 0 to 100 scale
itchgrass = assay: Test D itchgrass; format: in vivo, Rottboellia exaltata; conditions: Postemergence, 0 to 100 scale
surinam grass = assay: Test D surinam grass; format: in vivo, Brachiaria decumbens; conditions: Postemergence, 0 to 100 scale
Green foxtail [3] = assay: Test D green foxtail; format: in vivo; conditions: Postemergence, 0 to 100 scale, 0 no injury, 100 complete control; remark: listed apart in the source
cocklebur = assay: Test B pre/postemergence cocklebur; format: in vivo, Xanthium strumarium; conditions: for Cocklebur plant response rating: scale of 0 to 10 where 0 is no effect and 10 is complete control
Summary of the method: as §1

soybean = assay: Test B pre/postemergence soybean; format: in vivo, Glycine max; conditions: for Soybean plant response rating: scale of 0 to 10 where 0 is no effect and 10 is complete control
Summary of the method: as §1

Green foxtail [4] = assay: Test D green foxtail; format: in vivo; conditions: Rate 250 g/ha; Postemergence; 0 to 100 scale; remark: listed apart in the source
common pursiane = assay: Test D common purslane; format: in vivo, Portulaca oleracea; conditions: Postemergence, 0 to 100 scale
pitted morningglory = assay: Test D pitted morningglory; format: in vivo, Ipomoea lacunosa; conditions: Postemergence, 0 to 100 scale
[5] = Postemergence, Rate 125 g/ha, scale 0 to 10, 0 is no effect, 10 is complete control
[6] = Preemergence, Rate 62 g/ha, scale 0 to 10 (0 no effect, 10 complete control)
[7] = Rate 500 g/ha, Postemergence, scale 0 to 10, 0 no effect, 10 complete control
[8] = Rate 16 g/ha, 0 no injury, 100 complete control
[9] = Rate 32 g/ha, 0 no injury, 100 complete control
[10] = Rate 64 g/ha, 0 no injury, 100 complete control
[11] = Rate 125 g/ha, 0 no injury, 100 complete control

CCC(CC)n1c(=O)on(C(=O)N(c2ccc(F)cc2)C(C)C)c1=O [Compound 358]
Plant response rating, Green foxtail (Green foxtail [1]; Rate 16 g/ha): 0
Plant response rating, Green foxtail (Green foxtail [1]; Rate 32 g/ha): 30
Plant response rating, Redroot pigweed (pigweed; [5]): 3
Plant response rating, Redroot pigweed (pigweed; [6]): 7
Redroot pigweed plant response rating (0 to 10 scale) (pigweed; Preemergence, Rate 125 g/ha): 9
Redroot pigweed plant response rating (pigweed; Preemergence, Rate 250 g/ha): 10
Redroot pigweed plant response rating (pigweed; Preemergence, Rate 500 g/ha): 10
Redroot pigweed plant response rating (pigweed; Rate 62 g/ha, Postemergence): 3
Plant response rating, Redroot pigweed (pigweed; [7]): 6
Plant response rating, Com. groundsel (common groundsel; [8]): 0
Plant response rating, Com. groundsel (common groundsel; [9]): 0
Plant response rating, Com. groundsel (common groundsel; [10]): 0
Plant response rating, Com. groundsel (common groundsel; Rate 250 g/ha): 40
Plant response rating, Morningglory (morningglory; [5]): 5
Plant response rating, Morningglory (morningglory; [6]): 0
Morningglory plant response rating (0 to 10 scale) (morningglory; Preemergence, Rate 125 g/ha): 0
Morningglory plant response rating (morningglory; Preemergence, Rate 250 g/ha): 3
Morningglory plant response rating (morningglory; Preemergence, Rate 500 g/ha): 5
Morningglory plant response rating (morningglory; Rate 62 g/ha, Postemergence): 3
Plant response rating, Morningglory (morningglory; [7]): 7
Plant response rating, Green foxtail (Green foxtail [2]): 100
Plant response rating, Spanishneedles (Spanishneedles; [8]): 0
Plant response rating, Spanishneedles (Spanishneedles; [9]): 0
Spanishneedles plant response rating (Spanishneedles; [10]): 0
Spanishneedles plant response rating (Spanishneedles; [11]): 0
Plant response rating, Spanishneedles (Spanishneedles; Rate 250 g/ha): 0
Plant response rating, Itchgrass (itchgrass; [8]): 0
Plant response rating, Itchgrass (itchgrass; [9]): 0
Plant response rating, Itchgrass (itchgrass; [10]): 0
Plant response rating, Itchgrass (itchgrass; [11]): 0
Plant response rating, Itchgrass (itchgrass; Rate 250 g/ha): 100
Plant response rating, Surinam grass (surinam grass; [8]): 0
Plant response rating, Surinam grass (surinam grass; [9]): 0
Surinam grass plant response rating (surinam grass; [10]): 0
Surinam grass plant response rating (surinam grass; [11]): 50
Plant response rating, Surinam grass (surinam grass; Rate 250 g/ha): 50
Plant response rating, Green foxtail (Green foxtail [3]; Rate 16 g/ha): 0
Plant response rating, Green foxtail (Green foxtail [3]; Rate 32 g/ha): 30
Plant response rating, Cocklebur (cocklebur; [5]): 0
Plant response rating, Cocklebur (cocklebur; [6]): 0
Cocklebur plant response rating (0 to 10 scale) (cocklebur; Preemergence, Rate 125 g/ha): 0
Cocklebur plant response rating (cocklebur; Preemergence, Rate 250 g/ha): 0
Cocklebur plant response rating (cocklebur; Preemergence, Rate 500 g/ha): 0
Cocklebur plant response rating (cocklebur; Rate 62 g/ha, Postemergence): 0
Plant response rating, Cocklebur (cocklebur; [7]): 0
Plant response rating, Soybean (soybean; [5]): 4
Plant response rating, Soybean (soybean; [6]): 0
Soybean plant response rating (0 to 10 scale) (soybean; Preemergence, Rate 125 g/ha): 0
Soybean plant response rating (soybean; Preemergence, Rate 250 g/ha): 0
Soybean plant response rating (soybean; Preemergence, Rate 500 g/ha): 1
Soybean plant response rating (soybean; Rate 62 g/ha, Postemergence): 4
Plant response rating, Soybean (soybean; [7]): 7
Plant response rating, Green foxtail (Green foxtail [4]): 100
Plant response rating, C. purslane (common pursiane; [8]): 0
Plant response rating, C. purslane (common pursiane; [9]): 0
Plant response rating, C. purslane (common pursiane; [10]): 0
Plant response rating, C. purslane (common pursiane; [11]): 0
Plant response rating, C. purslane (common pursiane; Rate 250 g/ha): 0
Plant response rating, P. morninglory (pitted morningglory; [8]): 0
Plant response rating, P. morninglory (pitted morningglory; [9]): 0
Plant response rating, P. morninglory (pitted morningglory; [10]): 0
Plant response rating, P. morninglory (pitted morningglory; [11]): 0
Plant response rating, P. morninglory (pitted morningglory; Rate 250 g/ha): 0
